These results are taken from patent US20230053437A1, “LIPID COMPOUNDS AND LIPID NANOPARTICLE COMPOSITIONS” (Suzhou Abogen Biosciences Co., Ltd., priority 2020, published 2023).

Common to all, as to type: physicochemical
The nature of data set [1]: Lipid nanoparticle size by dynamic light scattering (Malvern Zetasizer Nano ZS). The note with it: LNP: cationic lipid/DSPC/cholesterol/PEG-lipid 50:10:38.5:1.5 with hEPO mRNA. The protocol: (§1) Briefly, a cationic lipid provided herein, DSPC, cholesterol, and PEG-lipid were solubilized in ethanol at a molar ratio of 50:10:38.5:1.5, and mRNA were diluted in 10 to 50 mM citrate buffer, pH=4. The LNPs were prepared at a total lipid to mRNA weight ratio of approximately 10:1 to 30:1 by mixing the ethanolic lipid solution with the aqueous mRNA solution at a volume ratio of 1:3 using a microfluidic apparatus, total flow rate ranging from 9-30 mL/min. Ethanol were thereby removed and replaced by DPBS using dialysis. Finally, the lipid nanoparticles were filtered through a […] sterile filter.
(§2) Lipid nanoparticle size were determined by dynamic light scattering using a Malvern Zetasizer Nano ZS (Malvern UK) using a 173° backscatter detection mode. The encapsulation efficiency of lipid nanoparticles were determined using a Quant-it Ribogreen RNA quantification assay kit (Thermo Fisher Scientific, UK) according to the manufacturer's instructions.

Data set [2] in a line: Encapsulation efficiency of lipid nanoparticles, Quant-it Ribogreen RNA quantification assay. The conditions noted are these: LNP with hEPO mRNA. The protocol:
as §1, §2

A short description of data set [3]: Apparent pKa of LNP formulations, TNS fluorescence assay. The conditions noted are these: LNP cationic lipid/DSPC/cholesterol/DMG-PEG 50/10/38.5/1.5 mol %, pH 3 to 9. As to the method:
As reported in literature, the apparent pKa of LNP formulations correlates with the delivery efficiency of LNPs for nucleic acids in vivo. The apparent pKa of each formulation was determined using an assay based on fluorescence of 2-(p-toluidino)-6-napthalene sulfonic acid (TNS). LNP formulations comprising of cationic lipid/DSPC/cholesterol/DMG-PEG (50/10/38.5/1.5 mol %) in PBS were prepared as described above. TNS was prepared as a 300 uM stock solution in distilled water. LNP formulations were diluted to 0.1 mg/ml total lipid in 3 mL of buffered solutions containing 50 mM sodium citrate, 50 mM sodium phosphate, 50 mM sodium borate, and 30 mM sodium chloride where the pH ranged from 3 to 9. An aliquot of the TNS solution was added to give a final concentration of 0.1 mg/ml and following vortex mixing fluorescence intensity was measured at room temperature in a Molecular Devices Spectramax iD3 spectrometer using excitation and mission wavelengths of 325 nm and 435 nm. A sigmoidal best fit analysis was applied to the fluorescence data and the pKa value was measured as the pH giving rise to half-maximal fluorescent intensity.

Structures are written as SMILES.

For the molecule `CCCCCCCCCCCC(=O)OCC1(COC(=O)CCCCCCCCCCC)CCN(CCO)CC1` [Compound 1], in data set [1], the polydispersity is 0.096 and the “size (nm)” value came to 58.53 nm. The “Encapsulation Efficiency” value in data set [2] is 98.8%. In addition, in data set [3], the “Apparant Pka” value is 7.30.
For `CCCCCCCCCCCC(=O)OCC1(COC(=O)CCCCCCCCCCC)CCN(C(=O)CCN(C)CCO)CC1` [Compound 2], in that order: 0.079, 80.24 nm, 92.5% and 7.29.
Taken in the same sequence, the figures for `CCCCCCCCCCCC(=O)OCC1(COC(=O)CCCCCCCCCCC)CCN(C(=O)CCN(CC)CCO)CC1` [Compound 3] were 0.165, 64.67 nm, 96.4% and 7.58.
Taken in the same sequence, the figures for `CCCCCCCCCCCC(=O)OCC1(COC(=O)CCCCCCCCCCC)CCN(C(=O)CCN(CCO)CCO)CC1` [Compound 4] were 0.199, 64.29 nm, 92.8% and 7.18.
As for `CCCCCCCCCCCC(=O)OCC1(COC(=O)CCCCCCCCCCC)CCN(C(=O)CCN2CCCC2)CC1` [Compound 5], in data set [1], the polydispersity was 0.112 and the “size (nm)” value is 69.83 nm. The “Encapsulation Efficiency” value in data set [2] is recorded as 95.4%. In addition, the “Apparant Pka” value in data set [3] turned out to be 7.67.
For `CCCCCCCCCCCC(=O)OCC1(COC(=O)CCCCCCCCCCC)CCN(C(=O)CCN2CCCCC2)CC1` [Compound 6], in that order: 0.064, 100 nm, 89.2% and 6.85.
For `CCCCCCCCCCCC(=O)OCC1(COC(=O)CCCCCCCCCCC)CCN(C(=O)CCN2CCCCCC2)CC1` [Compound 7], in that order: 0.101, 68 nm, 98.2% and 9.02.
In the case of `CCCCCCCCCCCC(=O)OCC1(COC(=O)CCCCCCCCCCC)CCN(C(=O)CCN2CCCCCCC2)CC1` [Compound 8], in data set [1], the polydispersity turned out to be 0.227 and the “size (nm)” value came out at 74.14 nm. In data set [2], the “Encapsulation Efficiency” value came to 91.6%. Moreover, the “Apparant Pka” value in data set [3] is 7.58.
With `CCCCCCCCCCCC(=O)OCC1(COC(=O)CCCCCCCCCCC)CCN(C(=O)CCN(C)C)CC1` [Compound 9], in data set [1], the polydispersity is listed as 0.08 and the “size (nm)” value is reported as 70.22 nm. In addition, in data set [2], the “Encapsulation Efficiency” value is given as 95.5%.
For the molecule `CCCCCCCCCCCC(=O)OCC1(COC(=O)CCCCCCCCCCC)CCN(C(=O)CCN2CCOCC2)CC1` [Compound 10], in data set [1], the polydispersity was 0.135 and the “size (nm)” value is 67.82 nm. Further, in data set [2], the “Encapsulation Efficiency” value is listed as 82.5%. Further, the “Apparant Pka” value in data set [3] came out at 6.81.
For `CCCCCCCCCCCC(=O)OCC1(COC(=O)CCCCCCCCCCC)CCN(C(=O)CCN(C)CCCNc2c(N(C)C)c(=O)c2=O)CC1` [Compound 12], in that order: 0.23, 98.67 nm, 95.8% and 7.45.
Turning to `CCCCCCCCCCCC(=O)OCC1(COC(=O)CCCCCCCCCCC)CCN(C(=O)CCN(C)CCCn2ccc(=O)[nH]c2=O)CC1` [Compound 13], in data set [1], the polydispersity is 0.127 and the “size (nm)” value is recorded as 57.44 nm. In data set [2], the “Encapsulation Efficiency” value amounted to 95.5%. Moreover, the “Apparant Pka” value in data set [3] was 7.09.
For `CCCCCCCCCCCC(=O)OCC1(COC(=O)CCCCCCCCCCC)CCN(C(=O)CCN(C)CCCn2ccc(N)nc2=O)CC1` [Compound 14], in that order: 0.092, 67.29 nm, 92.5% and 8.22.
`CCCCCCCCCCCC(=O)OCC1(COC(=O)CCCCCCCCCCC)CCN(C(=O)CCN(C)CCCn2cnc3c(N)ncnc32)CC1` [Compound 15]: in data set [1], the polydispersity amounted to 0.153 and the “size (nm)” value is 63.65 nm. For the same molecule, the “Encapsulation Efficiency” value in data set [2] was determined as 94.2%. Moreover, the “Apparant Pka” value in data set [3] is reported as 6.65.
Regarding `CCCCCCCCCCCC(=O)OCC1(COC(=O)CCCCCCCCCCC)CCN(C(C)CO)CC1` (stereo not shown) [Compound 17], in data set [1], the polydispersity is given as 0.159 and the “size (nm)” value stood at 54.04 nm. The “Encapsulation Efficiency” value in data set [2] is recorded as 96.6%. In data set [3], the “Apparant Pka” value came to 7.68.
In the case of `CCCCCCCCCCCC(=O)OCC1(COC(=O)CCCCCCCCCCC)CCN(CCCO)CC1` [Compound 18], in data set [1], the polydispersity turned out to be 0.212 and the “size (nm)” value is on record as 105.9 nm. Moreover, the “Encapsulation Efficiency” value in data set [2] is reported as 94.0%. In addition, the “Apparant Pka” value in data set [3] was determined as 7.17.
Regarding `CCCCCCCCCCCC(=O)OCC1(COC(=O)CCCCCCCCCCC)CCN(CCCCO)CC1` [Compound 19], in data set [1], the polydispersity amounted to 0.137 and the “size (nm)” value came to 66.82 nm. In data set [2], the “Encapsulation Efficiency” value came out at 94.5%. In addition, the “Apparant Pka” value in data set [3] was 7.93.
With `CCCCCCCCCCCC(=O)OCC1(COC(=O)CCCCCCCCCCC)CCN(CCCCCO)CC1` [Compound 20], in data set [1], the polydispersity was 0.161 and the “size (nm)” value turned out to be 81.62 nm. Further, the “Encapsulation Efficiency” value in data set [2] was determined as 92.6%. Besides, the “Apparant Pka” value in data set [3] worked out at 8.23.
Taken in the same sequence, the figures for `CCCCCCCCCCCC(=O)OCC1(COC(=O)CCCCCCCCCCC)CCN(CCCCCCO)CC1` [Compound 21] were 0.198, 127.8 nm, 73.2% and 6.71.
For `CCCCCCCCCCCC(=O)OCC1(COC(=O)CCCCCCCCCCC)CCN(C(=O)CCN(CCC)CCO)CC1` [Compound 22], in that order: 0.252, 56.79 nm, 93.9% and 7.76.
`CCCCCCCCCCCC(=O)OCC1(COC(=O)CCCCCCCCCCC)CCN(C(=O)CCN(CCO)C(C)C)CC1` [Compound 23]: in data set [1], the polydispersity is given as 0.078 and the “size (nm)” value is 77.29 nm. Moreover, the “Encapsulation Efficiency” value in data set [2] came out at 93.0%. Besides, the “Apparant Pka” value in data set [3] is given as 7.68.
For `CCCCCCCCCCCC(=O)OCC1(COC(=O)CCCCCCCCCCC)CCN(C(=O)CCN(CCO)CCCC)CC1` [Compound 24], in that order: 0.165, 71.61 nm, 93.6% and 7.98.
As for `CCCCCCCCCCCC(=O)OCC1(COC(=O)CCCCCCCCCCC)CCN(C(=O)CCN(CCO)CCCCC)CC1` [Compound 25], in data set [1], the polydispersity amounted to 0.153 and the “size (nm)” value was 69.62 nm. For the same molecule, the “Encapsulation Efficiency” value in data set [2] is 89.3%. Further, the “Apparant Pka” value in data set [3] was 7.98.
In the case of `CCCCCCCCCCCC(=O)OCC1(COC(=O)CCCCCCCCCCC)CCN(C(=O)CCN(CCC)CCC)CC1` [Compound 28], in data set [1], the polydispersity amounted to 0.142 and the “size (nm)” value came out at 116.2 nm. Further, the “Encapsulation Efficiency” value in data set [2] is reported as 79.2%.
